Assay results: patent US11357740B2, “Cannabidiol for enhancing the therapeutic effect of a steroid” (STERO BIOTECHS LTD., priority 2013, dated 2022)

How the values were obtained:
[1] = system: patients undergoing allogeneic hematopoietic stem cell transplantation; test: Prevention of acute and chronic GVHD in allogeneic stem cell transplanted patients (46 patients); assay type: in vivo, human; design: Non-relapse mortality / Overall survival rate: concentration or dose not given beside the values
Protocol: Forty six (46) patients over 18 years of age undergoing allogeneic hematopoietic stem cell transplantation at the Rabin Medical Center in Israel were recruited. Patients having history of psychosis or asthma, or consuming Cannabis during the last two months before transplantation were excluded from the study.
All patients received standard GVHD prophylaxis consisting of cyclosporine twice a day starting on day −1 with target trough levels ≥200 ng/mL in combination with short course of methotrexate (15 mg/sqm on day +1 and 10 mg/sqm on days +3 and +6). Most patients transplanted from unrelated donors received anti-T-cell globulin (ATG Fresenius) at a low dose of 5 mg/kg on days −3 to −1.
The investigational agent, CBD (STI Pharmaceuticals, Brentwood, Essex, UK) was dissolved in olive oil at a concentration of 2.5% and was orally administered from day −7 through day +30. The starting dose of CBD was 10 mg twice a day, and doses were doubled every other day to a maximal dose of 150 mg twice a day.
To estimate the prophylactic and therapeutic effect of Cannabidiol, the patients were carefully monitored and documented for the presentation of acute and chronic GVHD symptoms, the time of onset, the severity of the symptoms, the responsiveness to treatment, and the occurrence of infections.
Furthermore, a panel of 4 serum cytokines (soluble TNF receptor 1 (sTNFRI), soluble IL-2 receptor alpha (sIL2R-alpha), hepatocyte growth factor (HGF), and IL8)) were monitored. Blood samples were taken at days −7(A), 0(B), +14(C), and +28(D). The difference in blood levels between the various time points (B-A, C-B and D-C) were assessed.
Primary end points were safety and cumulative incidence of grade 2-4 and grade 3-4 GVHD by day +100. The secondary end points were cumulative incidence of chronic and severe chronic GVHD, non-relapse mortality (NRM), relapse incidence (RI), and overall survival (OS). NRM mortality was defined as death while the patient was in CR. Cumulative incidence curves were used for acute GVHD and chronic GVHD estimation, taking into account relapse and death as competing risks. Cumulative incidence curves were used for RI and NRM taking into account disease recurrence and death as competing events. Probabilities of OS and LFS were calculated using the Kaplan-Meier estimates.

[2] = system: patients with extensive chronic GVHD after allogeneic HCT; test: CBD treatment for chronic GVHD (12 patients); assay type: in vivo, human; conditions: oral CBD 50 mg twice a day
Protocol: Twelve patients over 18 years of age with extensive chronic GVHD after allogeneic HCT were recruited at the Rabin Medical Center in Israel. Patients having a history of psychosis or asthma, or consuming Cannabis during the last two months before transplantation were excluded from the study.
Patients were presently treated with a calcineurine inhibitor (cyclosporine or tacrolimus) with or without oral prednisone.
Patients were given oral CBD 50 mg twice a day.

[3] = system: patients experiencing severe acute GVHD; test: Case studies: CBD for severe (grade 3-4) and/or refractory acute GVHD; assay type: in vivo, human
Protocol: This example describes cases studies that show the surprising efficacy of CBD treatment of patients experiencing severe acute GVHD.
A person with acute myeloid leukemia in second complete remission, underwent an allogeneic hematopoietic cell transplantation from a matched sibling donor with a myeloablative conditioning consisting of fludarabine (160 mg/m^2) and busulfex (12.8 mg/kg). One month post-transplantation they developed classic grade 4 acute GVHD of the gastro-intestinal tract (GIT) confirmed by intestinal biopsy. They were refractory to cyclosporine and high-dose steroids, and was then given second line therapy consisting of mycophenolate mofetil followed by extra-corporeal photopheresis (ECP), from which a partial response was obtained. The patient then developed severe myopathy and became bed restricted. During tapering off of steroids they had relapse of grade 4 acute GVHD with GIT and skin involvement. They were refractory to high-dose steroids and thus started oral cannabidiol (CBD) 150 mg twice a day. […] CBD was stopped several weeks later upon remission. […] Nevertheless, they developed chronic GVHD for which they were given low dose cyclosporine and low dose prednisone.
A person with Philadelphia positive acute lymphoid leukemia in first complete remission underwent an allogeneic hematopoietic cell transplantation from a matched unrelated donor with reduced intensity conditioning consisting of fludarabine (150 mg/m^2), busulfex (12.8 mg/kg) and ATG (Fresenius, 15 mg/kg). Two months after transplantation, they developed generalized erythroderma ranked as stage 3 and grade 2 acute GVHD of the skin, which was confirmed by skin biopsy. Due to refractoriness to tacrolimus, systemic and topical steroids they started ECP with some improvement but without remission. They were still on tacrolimus and steroids when 11 months post-transplantation they had severe worsening of their skin rash with generalized erythroderma and desquamation ranked as stage 4 and grade 4 acute GVHD of the skin. They started oral CBD 150 mg twice a day and prednisone 40 mg once a day. […] CBD was stopped 2 months later after obtaining complete remission of acute GVHD.
A person with acute myeloid leukemia in first complete remission, underwent an allogeneic hematopoietic cell transplantation from a matched sibling donor with myeloablative conditioning consisting of busulfex (12.8 mg/kg) and cyclophosphamide (120 mg/kg). Eight months post-transplantation, leukemia relapsed. They received salvage chemotherapy followed by donor lymphocyte infusion (DLI) and achieved a complete hematologic remission. One month post DLI they developed jaundice with bilirubin levels of 11.5 mg % (normal≤1 mg %) and biopsy proven late onset acute GVHD of the liver ranked as stage 3 and grade 3. They were refractory to high-dose steroids and started oral CBD 150 mg twice a day.

[4] = system: patients experiencing severe refractory chronic GVHD; test: Case studies: CBD for severe refractory chronic GVHD; assay type: in vivo, human; conditions: person
Protocol: This example describes cases studies that show the surprising efficacy of CBD treatment of patients experiencing severe refractory chronic GVHD.
A person with acute lymphoid leukemia in first complete remission, underwent an allogeneic hematopoietic cell transplantation from a matched unrelated donor with myeloablative conditioning consisting of total body irradiation (12 Gray), cyclophosphamide and ATG (Fresenius, 15 mg/kg). The patient developed an overlap syndrome (concomitant acute plus chronic GVHD features) during the first month after transplantation which was treated with cyclosporine and steroids until complete remission. Immunosuppression was stopped 5 months after transplantation. Eighteen months after transplantation they developed chronic extensive GVHD with involvement of the oral cavity, eyes, liver, joints and skin. Skin involvement progressed to sclerosis. They started again cyclosporine and oral steroids with no improvement. There was no further improvement with imatinib (Gleevec). […] Unexpectedly, Prednisone effective therapeutic dose was tapered off up to 7.5-10 mg QD (20-50% reduction in the steroid's dose).
A person with acute myeloid leukemia in second complete remission underwent an allogeneic hematopoietic cell transplantation from a matched sibling donor with myeloablative conditioning consisting of busulfex (12.8 mg/kg) and cyclophosphamide (120 mg/kg). The patient experienced relapse in the central nervous system and breasts 12 months after transplantation, received chemo-radiotherapy and achieved complete remission. Shortly after remission, they developed chronic extensive GVHD with severe involvement of the eyes, joint and skin. Skin involvement progressed to severe sclerosis with limited range of motion of the joints. They were unresponsive to cyclosporine and oral steroids and therefore they were stopped after few months.

[5] = system: patients with late onset acute GVHD given steroids; test: Case studies: CBD reduces the effective dose of steroids (late onset acute GVHD); assay type: in vivo, human
Protocol: Person one with secondary acute myeloid leukemia in 1st complete remission, underwent and allogeneic hematopoietic cell transplantation from a matched unrelated donor with a myeloablative conditioning consisting of fludarabine (160 mg/m^2), busulfex (12.8 mg/kg) and ATG (Fresenius, 15 mg/kg). Eleven months after transplantation they developed jaundice with bilirubin level of 4.2 mg % and biopsy proven late onset acute GVHD of the liver ranked as stage 2 and grade 3. […] They started oral CBD 150 mg BID. […] Steroids could be tapered off to a low dose of 7.5 mg QD.
person two with refractory follicular lymphoma underwent an allogeneic hematopoietic cell transplantation from a matched unrelated donor with a reduced intensity conditioning consisting of fludarabine (150 mg/m^2), melphalan (100 mg/m^2) and ATG (Fresenius 15 mg/kg) and achieved a complete remission. Two years later they relapsed and received salvage immune-chemotherapy with bendamustine and rituximab followed by DLI and achieved a complete remission. One month later they were admitted with severe late onset acute GVHD with skin (rash) and upper (nausea and vomiting) plus lower gastrointestinal involvement (bloody diarrhea, crampy abdominal pain and severely inflamed and ulcerated mucosa). Biopsy proven GVHD was ranked as stage 3 of the skin and stage 4 and grade 4 acute GVHD of the GIT. They started cyclosporine and high-dose steroids. Despite skin response, GVHD of the GIT was refractory to prolonged systemic treatment of steroids. […] Prednisone was tapered off to 20 mg QD (40%)—found to be therapeutically effective.

[6] = system: patient suffering from psychological or neurological disorders; conditions: doses of up to 1500 mg per day; cited from earlier work
[7] = of the 11 patients with chronic GVHD
[8] = with calcineurine inhibitor with or without oral prednisone
[9] = person, stage 3 grade 3 acute GVHD of the liver, oral CBD 150 mg twice a day

C=C(C)[C@@H]1CCC(C)=C[C@H]1c1c(O)cc(CCCCC)cc1O [CBD, 2-[(6R)-3-Methyl-6-prop-1-en-2-yl-1cyclohex-2-envyl]-5pentylbenzene-1,3-diol]
Cumulative incidence of relapse ([1]; 6 months after HCT): 22% | Non-relapse mortality ([1]; 6 months after HCT): 11.6% | Overall survival rate ([1]; 6 months after HCT): 76% | Cumulative incidence of relapse ([1]; 12 months after HCT): 31% | Non-relapse mortality ([1]; 12 months after HCT): 11.6% | Overall survival rate ([1]; 12 months after HCT): 70% | patients who developed grade 2 to 4 acute GVHD ([1]; 46 patients recruited, CBD prophylaxis): Six | Cumulative incidence of relapse ([1]; 100 days after HCT): 12% | Non-relapse mortality ([1]; 100 days after HCT): 8.1% | Overall survival rate ([1]; 100 days after HCT): 84% | effect on incidence and severity of GVHD (conclusion) ([1]; after allogeneic stem cell transplantation): reduces the incidence and severity of acute and chronic GVHD | patients in whom chronic GVHD occurred ([1]; among patients surviving more than 100 days after HCT (n=33)): 11 patients | Cumulative incidence rate of extensive chronic GVHD ([1]; at 1 year): 19% | Cumulative incidence rate of overall chronic GVHD ([1]; at 1 year): 43% | Cumulative incidence rate of grade 2 to 4 acute GVHD ([1]; at day 100): 12.4% | Cumulative incidence rate of grade 3 to 4 acute GVHD ([1]; at day 100): 5% | patients with limited chronic GVHD [1, 7]: 8 patients | patients with severe chronic GVHD [1, 7]: 3 patients | grade 3 to 4 toxicities related to CBD ([1]; oral CBD 2.5% in olive oil, day -7 to +30, 10 mg up to 150 mg twice a day, with cyclosporine + methotrexate prophylaxis): No grade 3 to 4 toxicities related to CBD were observed | toxicity and psychotropic effects (conclusion) ([1]; preventing acute and chronic GVHD): low toxicity and lack of psychotropic effects | Median time to onset of grade 2 to 4 acute GVHD ([1]; range 41 to 150 days): 60 days | median time to onset of chronic GVHD ([1]; range 125 to 335 days): 159 days | effect on severity of chronic GVHD (conclusion) [2]: reduces the severity of chronic GVHD | clinical improvement, patients with lung involvement [2, 8]: 2 out of 3 | clinical improvement, patients with oral involvement [2, 8]: 3 out of 3 | clinical improvement, patients with skin involvement [2, 8]: 6 out of 8 | effect on refractory steroid dose (conclusion of case studies) ([3]; acute Grade 3 and Grade 4 GVHD): rendered a refractory dose of a steroid-therapeutically effective | clinical response, grade 4 acute GVHD with GIT and skin involvement ([3]; person, refractory to high-dose steroids, oral CBD 150 mg twice a day, after 14 days): complete cessation of diarrhea and resolution of their skin rash | bilirubin level after treatment ([3]; person, stage 3 grade 3 acute GVHD of the liver, baseline 11.5 mg %, refractory to high-dose steroids, oral CBD 150 mg twice a day): 0.7-1.3 mg % | jaundice [3, 9]: resolved within few days | steroid tapering [3, 9]: tapered off until complete cessation | acute GVHD status at follow-up ([3]; person, eighteen months following cessation of treatment): no symptoms or signs of acute GVHD | skin rash and desquamation, stage 4 and grade 4 acute GVHD of the skin ([3]; person, oral CBD 150 mg twice a day and prednisone 40 mg once a day, on tacrolimus): improved promptly until complete resolution | clinical response, chronic extensive GVHD with severe sclerosis ([4]; cyclosporine and oral steroids stopped, oral CBD 75 mg BID, after several months): significant improvement of their skin and joints range of motion | clinical response, chronic extensive GVHD (oral cavity, eyes, liver, joints, skin sclerosis) ([4]; no improvement with cyclosporine, oral steroids, imatinib, oral CBD 75 mg twice a day, after several weeks): resolved their liver and oral GVHD and significantly improved skin sclerosis and joint range of motion | Prednisone effective therapeutic dose tapered off up to ([4]; oral CBD 75 mg twice a day): 7.5-10 mg QD | reduction in the steroid's dose ([4]; oral CBD 75 mg twice a day): 20-50% | jaundice and bilirubin, stage 3 and grade 3 acute GVHD of the liver ([5]; person one, bilirubin 8.5 mg % on tacrolimus and steroids, oral CBD 150 mg BID): Jaundice resolved gradually and bilirubin dropped to normal levels | steroid dose tapered off to ([5]; person one, oral CBD 150 mg BID): 7.5 mg QD | clinical response, stage 4 and grade 4 acute GVHD of the GIT ([5]; person two, refractory to prolonged systemic steroids, oral CBD 150 mg BID with steroids): very good partial response (VGPR) | response upon renewal of treatment ([5]; person two, methylprednisolone 0.5 mg/kg QD and CBD 150 mg BID): A second VGPR was obtained | Prednisone tapered off to ([5]; person two, oral CBD 150 mg BID): 20 mg QD | Prednisone tapered dose, printed percentage ([5]; person two, oral CBD 150 mg BID, prednisone 20 mg QD): 40% | outcome after discontinuing CBD ([5]; person two, two months later, CBD discontinued without doctors' approval): diarrhea resumed following discontinuing CBD | adverse effects in clinical studies [6]: without any significant adverse effects
